# Legend:
# [1] = target: T1, TR-alpha (Homo sapiens, UniProt P10827); experiment: LanthaScreen TR-FRET nuclear receptor coregulator assay, TR-alpha; format: biochemical; conditions: for EC50: Nuclear Receptor TR-alpha, coregulator peptide recruitment; for interaction with TRalpha receptor: conclusion from TR-FRET data
# T1 construct: In this assay Nuclear Receptor-LBD is added to ligand test compounds; purchased Invitrogen Corporation, Life Technologies
# Experimental: The compounds of Formula (I,II) were tested in the biological test named LANTHASCREEN TR-FRET NUCLEAR RECEPTOR COREGULATOR ASSAY (Invitrogen Corporation, Life Technologies).
# In this assay Nuclear Receptor-LBD is added to ligand test compounds followed by addition of a mixture of the fluorescein-coregulator peptide and terbium anti-GST antibody.
# [2] = test system: ACC; experiment: Western blot of phosphorylated ACC in HepG2 cells; format: cell-based, Human; conditions: twenty-four hours of treatment
# Experimental: Human hepatocellular carcinoma cells (HepG2), obtained from American Type Culture Collection (Manassas, Va., USA), were cultured in low-glucose (LG) Dulbecco's modified Eagle's medium (DMEM) ([…], Invitrogen, Carlsbad, Calif., USA) or high-glucose (HG) DMEM ([…]) supplemented with 10% fetal bovine serum (FBS) and […] penicillin/streptomycin in an atmosphere of 5% CO2 at 37° C. These cells were then treated with tested compounds at various concentrations for 24 h. After treatments, cells were lysed in a buffer containing 20 mM Tris-HCl (pH 7.5), 0.9% NaCl, 0.2% Triton X-100, and 1% of the protease inhibitor cocktail (Sigma-Aldrich, Milan, Italy) and then stored at −80° C. for further western blot analysis. All the analyses were conducted on cells between the third and the sixth passage.
# Proteins (20-30 μg) were separated on CriterionTGX™ gel (4-20%) and transferred on Immuno-PVDF membrane (Biorad, Milan, Italy) for 1 h. Blots were incubated with the primary antibody at 4° C. overnight. All the polyclonal antibodies for the protein of interest were purchased from Santa Cruz Biotechnology, Inc., Dallas, TX, USA. Then, blots were washed 3 times for 10 minutes with 1×TBS, 0.1% Tween® 20 and incubated for 1 h with secondary antibody (peroxidase-coupled anti rabbit in 1×TBS, 0.1% Tween®20). […] Band densitometric analysis was performed using Image Lab Software (Biorad, Milan, Italy).
# The liver is a major organ responsible for most functions of cellular metabolism and a mediator between dietary and endogenous sources of energy for extrahepatic tissues. In this context, AMPK constitutes an intrahepatic energy sensor regulating physiological energy dynamics by limiting anabolism and stimulating catabolism, thus increasing ATP availability. Once activated, AMPK phosphorylates its downstream substrates to reduce ATP-consuming anabolic pathways, including cholesterol, fatty acid, and triacylglycerol synthesis, and increases ATP-generating catabolic pathways, including fatty acid oxidation and lipolysis. […]
# [3] = test system: HepG2 cells; experiment: Cell viability MTT assay; format: cell-based; conditions: 1-10 μM, 24 h
# Experimental: HepG2 cells were seeded in a 96-well plate (Corning, USA) at a density of 1.0×10^4 cells/well with DMEM (200 μl/well), and then incubated for 24 h according to routine procedure. After being treated with test compounds (1-10 μM) and incubated for 24 h (8 wells for each sample), 20 μL/well MTT (5 g/L) was added to each well. The medium was then removed after 4 h incubation and 100 μL/well sodium dodecyl sulfate (SDS)-HCl solution was added to dissolve the reduced formazan product after incubation for 16 h at 37° C. Finally, the plate was read at 570 nm, using a micro-plate reader (Bio-Rad 680, USA).
# [4] = Liver/body weight ratio in rats; format: in vivo, F344 male rats; conditions: 3 days daily; IS25 or TG68 50, 75, 100 μg/100 g b.w. i.g. or 75 μg/100 g i.p.; T3 20 μg/100 g b.w.
# Experimental: (§1) Five-week-old male F-344 rats purchased from Charles River (Milano, Italy) were maintained on a standard laboratory diet (Ditta Mucedola, Milano, Italy). The animals were given food and water ad libitum with a 12-h light/dark daily cycle and were acclimated for 1 week before the start of the experiment. All procedures were performed in accordance with the Guidelines for the Care and Use of Laboratory Animals and were approved by the Italian Ministry of Health. […] A control group received the vehicle (DMSO 5% in corn oil). Additional two groups received daily injections of either IS25 or TG68 at the dose of 75 μg/100 g b.wt. intraperitoneally for 3 days. For the measurement of hepatocyte proliferation, animals received bromodeoxyuridine (BrdU; 1 g/1 L) in drinking water during the 3-day treatment period (FIGS. 7A and B).
# A control group received the vehicle (DMSO 5% in corn oil). Additional two groups received daily injections of either IS25 or TG68 at the dose of 75 μg/100 g b.w. intraperitoneally for 3 days.
# [5] = test system: hepatocytes; experiment: Mitotic activity of hepatocytes (BrdU incorporation); format: in vivo, F344 rats; conditions: 3 days; for hepatocyte proliferation (mitogenic effect): i.p. injection 75 μg/100 g b.w.; for hepatocyte proliferation (BrdU incorporation): intragastric (i.g.) 50, 75 and 100 μg/100 g b.w.
# From the text: FIG. 7. […] A. Labeling Index (L.I.) of hepatocytes from F344 rats subjected to the treatment with test compounds was expressed as number of BrdU-positive hepatocyte nuclei/100 nuclei. Results were expressed as means±S.E. of 3-5 rats per group. At least 3000 hepatocytes per liver were scored. *P<0.05; **P<0.01.
# as §1
# [6] = Serum levels of cholesterol, glucose, transaminases, amylase, lipase, bilirubin and triglycerides; format: in vivo, F-344 rats; conditions: rats, 3 days treatment
# Experimental: as §1
# Lack of severe liver toxicity was confirmed by measuring the levels of serum transaminases and bilirubin (FIG. 8) that were within the range of normal values for F-344 rats of the same age (Charles River datasheet). Pancreas damage was also evaluated by measuring the levels of amylase and lipase.
# T1 sequence (P10827 163-410 isoform P10827-2 limits assumed, other chains not shown): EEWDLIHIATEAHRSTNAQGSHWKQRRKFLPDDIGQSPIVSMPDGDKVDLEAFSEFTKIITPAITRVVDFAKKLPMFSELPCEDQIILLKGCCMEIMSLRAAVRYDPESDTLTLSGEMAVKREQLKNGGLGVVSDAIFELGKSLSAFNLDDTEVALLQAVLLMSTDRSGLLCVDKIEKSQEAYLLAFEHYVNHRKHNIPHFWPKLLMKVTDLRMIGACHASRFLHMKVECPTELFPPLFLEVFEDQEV
Structure (SMILES),EC50 [1],interaction with TRalpha receptor [1],ACC phosphorylation (p-ACC) [2],cell viability (cell death with respect to control) [3],liver/body weight ratio [4],hepatocyte proliferation (mitogenic effect) [5],hepatocyte proliferation (BrdU incorporation) [5],serum amylase (pancreas damage) [6],serum cholesterol [6],serum glucose [6],serum lipase (pancreas damage) [6]
"CC(=O)Nc1ccc(Cc2c(C)cc(OCC(=O)O)cc2C)cc1C(C)C [TG68, 2-(4-(4-acetamido-3-isopropylbenzyl)-3,5-dimethylphenoxy)acetic acid]",> 1000 nM,do not interact,significant ACC phosphorylation,did not significantly (p<0.05) cause cell death,no such effect was observed,the mitogenic effect was lost,induced a dose dependent hepatocyte proliferation,No significant changes,no change,no change,No significant changes
"Cc1cc(OCC(=O)O)cc(C)c1Cc1ccc(N)c(C(C)C)c1 [IS25, 2-(4-(4-amino-3-isopropylbenzyl)-3,5-dimethylphenoxy)acetic acid]",> 1000 nM,do not interact,significant ACC phosphorylation,did not significantly (p<0.05) cause cell death,no such effect was observed,the mitogenic effect was lost,induced a dose dependent hepatocyte proliferation,No significant changes,no change,no change,No significant changes

# Source: US12187663B2, “Thyromimetics with a biphenylmethane scaffold and their use” (INTERNATIONAL SOCIETY FOR DRUG DEVELOPMENT S.R.L., priority 2019, dated 2025)
